Patent US20230142126A1, “METHODS AND COMPOSITIONS FOR THE TREATMENT OF VIRAL DISEASES” (priority 2020, published 2023)
Several values for one entry are separate records, joined by “and”; a condition that tells them apart may be missing. Equal values may be shown once. Read-outs that look alike come from different tables or passages of the source.

Assays:
SARS-CoV-2 = experiment: microbe, parasite or virus in culture; format: cell-based; conditions: for EC50 / EC90: Calu-3, plaque assay; for EC90: estimated
[1] = system: SARS-CoV-2 (strain: BEI_USA-WA1/2020); experiment: microbe, parasite or virus in culture; format: cell-based; conditions: Calu-3, 4 h pretreatment
[2] = system: Dengue virus, serotype 2 (DENV2); experiment: CPE antiviral assay (MTS), Dengue virus in BHK-21 cells; format: cell-based, New Guinea C; conditions: CPE 5 days, at the concentrations tested
Description: (§1) Viruses and cells were mixed in the presence of Balicatib (HB-121) and incubated for the assay duration as specified in Table 1. […] An antiviral effect or cytoprotective effect was considered to be observed when therapeutic agent (Balicatib or positive control indicated in Table 1) prevented virus replication. A standardized plate format was used for cytoprotective assays. […] Samples were evaluated for antiviral efficacy with triplicate measurements to determine cytotoxicity, if detectable. […]
(§2) At assay termination, the assay plates were stained with the soluble tetrazolium-based dye MTS (CellTiter®96 Reagent, Promega) to determine cell viability and quantify compound toxicity. MTS is metabolized by the mitochondrial enzymes of metabolically active cells to yield a soluble formazan product, allowing the rapid quantitative analysis of cell viability and compound cytotoxicity. […] Adhesive plate sealers were used in place of the lids, the sealed plates were inverted several times to mix the soluble formazan product and the plate was read spectrophotometrically at 490/650 nm with a Molecular Devices SpectraMax i3 plate reader. […]

[3] = system: SARS-CoV-2 hCoV-19/USA/WA1/2020; format: cell-based
in vitro = conditions: human
RD cells = experiment: Cytotoxicity assay (MTS dye reduction) in the cells of the Enterovirus assay; format: cell-based; conditions: RD cells, 4 days
Description: (§3) Viruses and cells were mixed in the presence of Balicatib (HB-121) and incubated for the assay duration as specified in Table 1. […] An antiviral effect or cytoprotective effect was considered to be observed when therapeutic agent (Balicatib or positive control indicated in Table 1) prevented virus replication. A standardized plate format was used for cytoprotective assays. Each plate contained cell control wells (cells only), virus control wells (cells plus virus), therapeutic agent cytotoxicity wells (cells plus therapeutic agent only), therapeutic agent colorimetric control wells (therapeutic agent only), background control wells (media only), as well as experimental wells (therapeutic agent plus cells plus virus). Samples were evaluated for antiviral efficacy with triplicate measurements to determine cytotoxicity, if detectable. […] Interferon (IFN) was used as positive controls in the assays were noted as IU/mL (bioactivity defined by International Units/mL was used from the certificate of analysis information provided by the vendor, PBL Assay Science, Piscataway, NJ). […]
as §2
(§4) Cells were seeded at 2,500 to 40,000 cells per well in 96-well plates in replication medium as specified in Table 3. […] After the assay readout (duration) as specified in Table 1, cell viability was determined using MTS dye reduction. […]

[4] = as above; format: cell-based; conditions: human
Description: as §3, §2, §4

Parainfluenza Type 3 = experiment: CPE antiviral assay (MTS), Parainfluenza in LLC-MK2 7.1 cells; format: cell-based, Parainfluenza Type 3 C243; conditions: CPE 7 days, at the concentrations tested
Description: as §1, §2

Influenza A (Flu A. Cal) = experiment: CPE antiviral assay (MTS), Influenza A in MDCK cells; format: cell-based, A/California/07/2009; conditions: CPE 3 days, at the concentrations tested
Description: as §1, §2

Adenovirus (Type 5) = experiment: CPE antiviral assay (MTS), Adenovirus in HeLa cells; format: cell-based; conditions: CPE 6 days, at the concentrations tested
Measles = experiment: CPE antiviral assay (MTS), Measles in MRC-5 cells; format: cell-based, Measles Virus (Edmonston); conditions: CPE 10 days, at the concentrations tested
Description: as §1, §2

Enterovirus 71 = experiment: CPE (cytoprotection) antiviral assay with MTS readout, Enterovirus 71 in RD cells; format: cell-based, Enterovirus (EV-71(H)), strain 71H; conditions: for EC50: 50% inhibition of virus replication, read-out: EC 50% (EC50)
Description: Viruses and cells were mixed in the presence of Balicatib (HB-121) and incubated for the assay duration as specified in Table 1. […] An antiviral effect or cytoprotective effect was considered to be observed when therapeutic agent (Balicatib or positive control indicated in Table 1) prevented virus replication. A standardized plate format was used for cytoprotective assays. Each plate contained cell control wells (cells only), virus control wells (cells plus virus), therapeutic agent cytotoxicity wells (cells plus therapeutic agent only), therapeutic agent colorimetric control wells (therapeutic agent only), background control wells (media only), as well as experimental wells (therapeutic agent plus cells plus virus). Samples were evaluated for antiviral efficacy with triplicate measurements to determine cytotoxicity, if detectable. […] Interferon (IFN) was used as positive controls in the assays were noted as IU/mL (bioactivity defined by International Units/mL was used from the certificate of analysis information provided by the vendor, PBL Assay Science, Piscataway, NJ). In Table 2, fields labeled as “Drug 1” or “Drug 2” indicate Cells + Virus + Drug; fields labeled as “Tox 1” or “Tox 2” indicate Cells + Drug 1 or Drug 2, respectively (toxicity tested in duplicate); Cells labeled as “Color 1” or “Color 2” = Media + Drug 1 or Drug 2, respectively (colorimetric background, no cells).
At assay termination, the assay plates were stained with the soluble tetrazolium-based dye MTS (CellTiter®96 Reagent, Promega) to determine cell viability and quantify compound toxicity. MTS is metabolized by the mitochondrial enzymes of metabolically active cells to yield a soluble formazan product, allowing the rapid quantitative analysis of cell viability and compound cytotoxicity. […] At termination of the assay, 10-25 µL of MTS reagent was added per well (10% final concentration based on volume) and the microtiter plates were then incubated for 2-3 hours at 37° C., (except Rhinovirus assay plates, which were incubated at 33° C.) 5% CO2 to assess cell viability. Adhesive plate sealers were used in place of the lids, the sealed plates were inverted several times to mix the soluble formazan product and the plate was read spectrophotometrically at 490/650 nm with a Molecular Devices SpectraMax i3 plate reader.
Using an in-house computer program, the CPE data analysis was conducted and included the calculation of EC50 (50% inhibition of virus replication), EC95 (95% inhibition of virus replication), CC50 (50% cytotoxicity), CC95 (95% cytotoxicity) and selectivity index values (SI = CC/EC; also referred to as Antiviral Index or AI).
The minimum inhibitory drug concentration that reduced plaque formation by 50% (EC50) and the minimum drug concentration that inhibited cell growth by 50% (CC50) were calculated. The selectivity index (SI) for each active compound was determined by dividing the CC50 by the EC50.

[5] = Plasma concentration of Balicatib after oral dosing, based on human clinical dosing; conditions: 400 mg oral dosing, EC50 against SARS-CoV-2
[6] = system: Respiratory syncytial virus (RSV); experiment: CPE antiviral assay (MTS), RSV in HEp-2 cells; format: cell-based, Long; conditions: CPE 5 days, at the concentrations tested
Description: as §1, §2

Rhinovirus 14 (HRV 14) = experiment: CPE antiviral assay (MTS), Rhinovirus 14 in H1 HeLa cells; format: cell-based, strain 1059; conditions: 33° C., CPE 4 days, at the concentrations tested
Influenza B (Flu B.Bris) = experiment: CPE antiviral assay (MTS), Influenza B in MDCK cells; format: cell-based; conditions: CPE 3 days, at the concentrations tested
HIV-1 (IIIB) = experiment: CPE antiviral assay (MTS), HIV-1 in MT-4 cells; format: cell-based; conditions: CPE 6 days, at the concentrations tested
Description: as §1, §2

Coxsackie (A7) (CoxA7) = experiment: CPE antiviral assay (MTS), Coxsackie A7 in LLC-MK2 7.1 cells; format: cell-based; conditions: CPE 4 days, at the concentrations tested
[7] = Severe acute respiratory syndrome coronavirus 2

C[C@@H]1CS/C(=N\NC(=O)C(=O)[C@@H](NC(=O)C2CCCCCC2)C2CCOCC2)N1C [ONO-5334]
% Inhibition (SARS-CoV-2; 1 µM (Table 7)): 79%
% Inhibition (SARS-CoV-2; 10 µM (Table 7)): 100%
EC50 (SARS-CoV-2; estimated from 1 and 10 µM): < 1 µM
antiviral activity (percentage of virus infected cells vs concentration) ([1]; MOI 0.01, 48 h post-infection (FIG. 2, FIG. 3)): demonstrated antiviral activity

CC(C)(F)C[C@H](N[C@@H](c1ccc(-c2ccc(S(C)(=O)=O)cc2)cc1)C(F)(F)F)C(=O)NC1(C#N)CC1 [Odanacatib]
inhibition at 1 µM (SARS-CoV-2; Severe acute respiratory syndrome coronavirus 2, Calu-3, 1 µM (Table 7), read-out: % Inhibition): 48.4%
inhibition at 10 µM (SARS-CoV-2; Severe acute respiratory syndrome coronavirus 2, Calu-3, 10 µM (Table 7), read-out: % Inhibition): 97.1%
EC90 (SARS-CoV-2; [7]): 1 to 10 µM
EC50 (SARS-CoV-2; Severe acute respiratory syndrome coronavirus 2, estimated from 1 and 10 µM): ~1 µM

CCCN1CCN(c2ccc(C(=O)NC3(C(=O)NCC#N)CCCCC3)cc2)CC1 [Balicatib]
antiviral efficacy [2]: not effective
Cell Appearance (Calu-3 human cells; 100 µM (Table 6)): No CPEs
Viability (%) at 24 hr time point (Calu-3 human cells; 100 µM, 24 hr, 98.7% viability at seeding): 71.0% and 72.1%
effect on cell growth (Calu-3 human cells; 100 µM, Calu-3): little to no effect on cell growth
effect on cellular viability (Calu-3 human cells; 100 µM, Calu-3): does not alter cellular viability
Count (cells/ml) at 24 hr time point (Calu-3 human cells; 100 µM, seeded at 2.0E5 per well, 24 hr): 1.8e5 cells/ml and 1.6e5 cells/ml
titer reduction in virus titer (TCID50) ([3]; 0.3 µM (lowest test concentration), A549-hACE2, MOI 0.1, 24 hours): > 3 log
titer reduction vs virus without Balicatib (TCID50) ([3]; 5 µM, A549-hACE2, MOI 0.1, 24 hours): more than 6 log
reduction of SARS-CoV-2 WA1/2020 ([3]; A549-hACE2 cells, 24 hours): significant reduction
CC50 (in vitro): > 100 µM
CC 25% (RD cells; 25% cytotoxicity): > 30.0 µM
CC 95% (CC95) (RD cells; 95% cytotoxicity): > 30.0 µM
CC50 at 4 days [4]: > 30 µM
Overall % Inhibition (average of two experiments) Combined (SARS-CoV-2; 100 nM, 0.1 µM): 57.75%
Overall % Inhibition (average of two experiments) Combined (SARS-CoV-2; 10 µM): 99.4%
Selectivity Index (SI) (SARS-CoV-2; Calu-3 cells, calculated from CC50 and EC50): > 300
inhibition at 0.1 µM (SARS-CoV-2; Severe acute respiratory syndrome coronavirus 2, Calu-3, 100 nM, read-out: Overall % Inhibition (average of two experiments) Combined): ~57%
inhibition at 0.3 µM (SARS-CoV-2; Severe acute respiratory syndrome coronavirus 2, Calu-3, 300 nM, read-out: Overall % Inhibition (average of two experiments) Combined): 90%
inhibition at 1 µM (SARS-CoV-2; Severe acute respiratory syndrome coronavirus 2, Calu-3, 1 µM, read-out: Overall % Inhibition (average of two experiments) Combined): ~68%
inhibition at 3 µM (SARS-CoV-2; Severe acute respiratory syndrome coronavirus 2, Calu-3, 3 µM, read-out: Overall % Inhibition (average of two experiments) Combined): ~100%
inhibition at 10 µM (SARS-CoV-2; Severe acute respiratory syndrome coronavirus 2, Calu-3, 10 µM, read-out: Overall % Inhibition (average of two experiments) Combined): ~100%
inhibition at 30 µM (SARS-CoV-2; Severe acute respiratory syndrome coronavirus 2, Calu-3, 30 µM, read-out: Overall % Inhibition (average of two experiments) Combined): ~100%
inhibition at 0.1 µM (SARS-CoV-2; Severe acute respiratory syndrome coronavirus 2, Calu-3, 72 h, 100 nM, MOI 0.1, 72 h, read-out: % Inhibition Experiment 1): 97.3%
inhibition at 0.1 µM (SARS-CoV-2; Severe acute respiratory syndrome coronavirus 2, Calu-3, 72 h, 100 nM, MOI 0.1, 72 h, read-out: % Inhibition Experiment 2): 18%
inhibition at 0.3 µM (SARS-CoV-2; Severe acute respiratory syndrome coronavirus 2, Calu-3, 72 h, 300 nM, MOI 0.1, 72 h, read-out: % Inhibition Experiment 2): 90%
inhibition at 1 µM (SARS-CoV-2; Severe acute respiratory syndrome coronavirus 2, Calu-3, 72 h, 1 µM, MOI 0.1, 72 h, read-out: % Inhibition Experiment 1): 64%
inhibition at 1 µM (SARS-CoV-2; Severe acute respiratory syndrome coronavirus 2, Calu-3, 72 h, 1 µM, MOI 0.1, 72 h, read-out: % Inhibition Experiment 2): 72.5%
inhibition at 3 µM (SARS-CoV-2; Severe acute respiratory syndrome coronavirus 2, Calu-3, 72 h, 3 µM, MOI 0.1, 72 h, read-out: % Inhibition Experiment 2): 100%
inhibition at 10 µM (SARS-CoV-2; Severe acute respiratory syndrome coronavirus 2, Calu-3, 72 h, 10 µM, MOI 0.1, 72 h, read-out: % Inhibition Experiment 1): 98.8%
inhibition at 10 µM (SARS-CoV-2; Severe acute respiratory syndrome coronavirus 2, Calu-3, 72 h, 10 µM, MOI 0.1, 72 h, read-out: % Inhibition Experiment 2): 100%
inhibition at 30 µM (SARS-CoV-2; Severe acute respiratory syndrome coronavirus 2, Calu-3, 72 h, 30 µM, MOI 0.1, 72 h, read-out: % Inhibition Experiment 2): 100%
EC90 (SARS-CoV-2; [7]): 1 to 3 µM
EC50 (SARS-CoV-2; Severe acute respiratory syndrome coronavirus 2, estimated from two studies): 0.05 to 0.6 µM
EC50 ([1]; Severe acute respiratory syndrome coronavirus 2, MOI 0.01, 48 h post-infection, % infected cells (FIG. 1), read-out: approximate EC50): 0.25 to 0.5 µM
antiviral efficacy (Parainfluenza Type 3): not effective
antiviral efficacy (Influenza A (Flu A. Cal)): not effective
antiviral efficacy (Adenovirus (Type 5)): not effective
antiviral efficacy (Measles): not effective
EC 25% (Enterovirus 71; 25% inhibition of virus replication, RD cells, CPE 4 days): 5.85 µM
EC50 (Enterovirus 71; RD cells, CPE 4 days, listed as HB-121): 22.1 µM
EC 95% (EC95) (Enterovirus 71; 95% inhibition of virus replication, RD cells, CPE 4 days): >30.0 µM
EC50 (Enterovirus 71; Enterovirus A, RD, 96 h, RD cells, CPE 4 days): ~20 µM
Selectivity Index (SI) 50% (Enterovirus 71; SI = CC50/EC50): >1.36
Selectivity Index (SI) 25% (Enterovirus 71; SI = CC/EC at 25%): >5.13
time plasma concentration is above EC50 [5]: 16 to 20 h
antiviral efficacy [6]: not effective
antiviral efficacy (Rhinovirus 14 (HRV 14)): not effective
antiviral efficacy (Influenza B (Flu B.Bris)): not effective
antiviral efficacy (HIV-1 (IIIB)): not effective
antiviral efficacy (Coxsackie (A7) (CoxA7)): not effective
